Reference: patent publication US5041447A, “Oxetanocin-related compounds and pharmaceutical compositions containing them” (priority 1988, dated 1991)
Values after ≈ are worked out from the molar mass of the structure shown.

Legend:
[1] = tested on: HIV (human immunodeficiency virus); experiment: Anti-HIV activity: development of virus antigen in HIV-infected MT-4 cells (indirect fluorescent antibody method); assay type: cell-based; details: 4 days, DMSO only 80 to 90%
Method: Anti-HIV (human immunodeficiency virus) activity
MT-4 cell (about 100,000 cells/ml) was added into a 24 well tray, and then 100 microliters of a solution containing a predetermined quantity of a compound of this invention was added. After culturing it at 37° C. for 5 hours in 5% (v/v) carbon dioxide incubator, 10^3 to 10^4 infection units of HIV was added and cultured for 4 days. Then, a part of the cultured fluid was coated onto a slide glass and immobilized with acetone, after which development of virus antigen was observed by indirect fluorescent antibody method.
As the primary antibody of the fluorescent antibody method, a serum of AIDS patient was used. As its secondary antibody, FITC-labelled […] was used.

[2] = tested on: cytomegalovirus (A0169 strain); experiment: Anti-cytomegalovirus activity: plaque formation in human fetal fibroblasts; assay type: cell-based; details: Human betaherpesvirus 5, Fibroblast, 240 h, 100 PFU, 37° C., 10 days
Method: Anti-cytomegalovirus activity was determined in the following manner. Thus, a 35 mm.phi. dish containing a single layer of human fetal fibroblasts was infected with 100 PFU (plaque forming units) of cytomegalovirus (A0169 strain). After adsorption for one hour, a medium (0.5% agarose, 2% fetal calf serum) containing a varied concentration of the compound of this invention was superposed thereon, and the whole was cultured at 37° C. for 10 days in 5% (v/v) carbon dioxide incubator, after which the formation of plaque was measured. The results are shown in Table 3 in terms of 50% inhibitory value (IC50).

Row | SMILES | Development of virus antigen (%) ([1]; 3 μg/ml) | Development of virus antigen (%) ([1]; 10 μg/ml) | Development of virus antigen (%) ([1]; 100 μg/ml) | IC50 [2] [µg/mL]
1 | CCCCCCCCCCCCCCCC(=O)OC[C@H]1O[C@@H](n2cnc3c(N)ncnc32)[C@@H]1CO [Compound No. 9] | 7 | 3 | < 0.1 | 1.7 (≈ 3.47 µM)
2 | O=c1[nH]cnc2c1ncn2[C@H]1C[C@@H](CO)O1 [Compound No. 13] | < 0.1 | < 0.1 | < 0.1 | 
3 | Nc1ncnc2c1ncn2[C@@H]1O[C@H](CO)[C@H]1F [Compound No. 10] | > 90 | 50 | < 0.1 | 
4 | [N-]=[N+]=NC[C@H]1[C@H](n2cnc3c(N)ncnc32)O[C@@H]1CO [Compound No. 2] | 15 | 10 | < 0.1 | 
5 | Nc1ncnc2c1ncn2[C@H]1C[C@@H](CO)O1 [Compound No. 1] | 0.1 | < 0.1 | < 0.1 | 
6 | Nc1ncnc2c1ncn2[C@@H]1O[C@H](CO)[C@@H]1O [Compound No. 3] | 1 | 0.1 | < 0.1 | 
7 | CCCCC(=O)OC[C@H]1O[C@@H](n2cnc3c(N)nc(N)nc32)[C@@H]1CO [Compound No. 15] |  |  |  | > 5
8 | O=c1[nH]cnc2c1ncn2[C@@H]1O[C@H](CO)[C@H]1COS(=O)(=O)O [Compound No. 17] | 60 | 10 | < 0.1 | 
9 | [N-]=[N+]=N[C@H]1[C@H](n2cnc3c(N)ncnc32)O[C@@H]1CO [Compound No. 11] | > 90 | 75 | < 0.1 | 
10 | CCCCC(=O)OC[C@H]1O[C@@H](n2cnc3c(N)ncnc32)[C@@H]1CO [Compound No. 8] | 5 | 3 | < 0.1 | 
11 | CCCCC(=O)OC[C@H]1O[C@@H](n2cnc3c(=O)[nH]c(N)nc32)[C@@H]1CO [Compound No. 14] |  |  |  | > 5
12 | Nc1ncnc2c1ncn2[C@@H]1O[C@H](CO)[C@H]1N [Compound No. 16] | 17 | 6 | < 0.1 | 
13 | C=C1[C@H](n2cnc3c(N)ncnc32)O[C@@H]1CO [Compound No. 4] | 10 | 3 | < 0.1 | 
